The record followed here is PMC11345841, “Exploring 2-Sulfonylpyrimidine Warheads as Acrylamide Surrogates for Targeted Covalent Inhibition: A BTK Story” (Journal of Medicinal Chemistry, 2024).

Where two headings read alike, the source gives them in different places.

Assay in all cases: KINOMEscan ScanTK
Format in all cases: binding

In experiment [1] the target is T1, FLT3 (Homo sapiens, UniProt P36888).
T1 construct: purchased Eurofins DiscoverX KINOMEscan (scanTK)
T1 sequence (P36888 27-993): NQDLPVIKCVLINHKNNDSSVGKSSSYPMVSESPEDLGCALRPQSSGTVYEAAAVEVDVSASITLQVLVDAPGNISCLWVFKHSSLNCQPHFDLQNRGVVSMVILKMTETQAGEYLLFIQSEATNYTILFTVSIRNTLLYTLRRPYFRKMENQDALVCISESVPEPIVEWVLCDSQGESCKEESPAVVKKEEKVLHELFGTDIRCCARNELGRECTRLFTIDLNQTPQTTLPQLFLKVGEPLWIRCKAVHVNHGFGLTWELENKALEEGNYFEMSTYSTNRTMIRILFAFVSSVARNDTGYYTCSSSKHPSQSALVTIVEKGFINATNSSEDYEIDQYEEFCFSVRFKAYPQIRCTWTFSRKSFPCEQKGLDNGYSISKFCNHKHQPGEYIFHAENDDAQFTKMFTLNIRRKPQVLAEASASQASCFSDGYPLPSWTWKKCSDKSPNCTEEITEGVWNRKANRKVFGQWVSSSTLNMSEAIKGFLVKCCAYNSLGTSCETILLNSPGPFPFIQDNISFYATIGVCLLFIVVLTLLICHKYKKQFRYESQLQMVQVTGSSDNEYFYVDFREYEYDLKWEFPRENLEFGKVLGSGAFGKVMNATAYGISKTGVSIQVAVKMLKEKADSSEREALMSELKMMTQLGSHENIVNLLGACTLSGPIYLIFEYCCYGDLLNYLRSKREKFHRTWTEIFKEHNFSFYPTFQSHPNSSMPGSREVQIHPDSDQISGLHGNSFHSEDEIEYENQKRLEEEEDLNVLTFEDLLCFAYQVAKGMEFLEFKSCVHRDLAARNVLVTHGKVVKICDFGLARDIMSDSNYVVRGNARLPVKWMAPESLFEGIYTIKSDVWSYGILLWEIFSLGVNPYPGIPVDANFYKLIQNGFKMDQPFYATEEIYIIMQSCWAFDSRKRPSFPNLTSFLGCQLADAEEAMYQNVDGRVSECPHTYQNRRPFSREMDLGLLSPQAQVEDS

Experiment [2] deals with T2, EPHB6 (Homo sapiens, UniProt O15197).
T2 construct: purchased Eurofins DiscoverX KINOMEscan (scanTK)
T2 sequence (O15197 32-1021): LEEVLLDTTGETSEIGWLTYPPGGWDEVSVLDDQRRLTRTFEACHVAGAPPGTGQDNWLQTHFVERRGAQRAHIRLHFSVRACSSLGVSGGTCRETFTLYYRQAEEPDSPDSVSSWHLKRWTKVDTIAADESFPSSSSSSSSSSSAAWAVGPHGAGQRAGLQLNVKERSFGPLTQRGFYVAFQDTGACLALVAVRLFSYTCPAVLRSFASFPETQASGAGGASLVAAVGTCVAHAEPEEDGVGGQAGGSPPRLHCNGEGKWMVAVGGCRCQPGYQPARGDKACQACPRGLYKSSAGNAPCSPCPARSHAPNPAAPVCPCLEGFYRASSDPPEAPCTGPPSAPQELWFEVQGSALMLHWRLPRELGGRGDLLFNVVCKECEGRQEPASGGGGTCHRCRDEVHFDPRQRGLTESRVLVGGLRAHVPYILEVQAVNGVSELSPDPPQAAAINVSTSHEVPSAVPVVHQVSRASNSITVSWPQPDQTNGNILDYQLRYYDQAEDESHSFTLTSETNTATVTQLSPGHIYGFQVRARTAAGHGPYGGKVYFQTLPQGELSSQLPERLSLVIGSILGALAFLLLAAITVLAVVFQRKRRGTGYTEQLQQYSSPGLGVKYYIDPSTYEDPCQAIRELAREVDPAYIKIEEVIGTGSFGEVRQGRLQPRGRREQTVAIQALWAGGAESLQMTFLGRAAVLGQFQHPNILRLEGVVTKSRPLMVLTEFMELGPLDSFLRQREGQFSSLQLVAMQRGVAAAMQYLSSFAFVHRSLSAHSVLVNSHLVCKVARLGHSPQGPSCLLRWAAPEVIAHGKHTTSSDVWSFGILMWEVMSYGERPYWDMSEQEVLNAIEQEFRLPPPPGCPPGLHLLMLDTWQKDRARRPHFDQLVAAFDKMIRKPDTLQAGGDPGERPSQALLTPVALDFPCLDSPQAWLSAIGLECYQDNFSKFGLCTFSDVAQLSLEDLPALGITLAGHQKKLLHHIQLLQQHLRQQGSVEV

For experiment [3], the target named is T3, MERTK (Homo sapiens, UniProt Q12866).
T3 construct: purchased Eurofins DiscoverX KINOMEscan (scanTK)
T3 sequence (Q12866 21-999): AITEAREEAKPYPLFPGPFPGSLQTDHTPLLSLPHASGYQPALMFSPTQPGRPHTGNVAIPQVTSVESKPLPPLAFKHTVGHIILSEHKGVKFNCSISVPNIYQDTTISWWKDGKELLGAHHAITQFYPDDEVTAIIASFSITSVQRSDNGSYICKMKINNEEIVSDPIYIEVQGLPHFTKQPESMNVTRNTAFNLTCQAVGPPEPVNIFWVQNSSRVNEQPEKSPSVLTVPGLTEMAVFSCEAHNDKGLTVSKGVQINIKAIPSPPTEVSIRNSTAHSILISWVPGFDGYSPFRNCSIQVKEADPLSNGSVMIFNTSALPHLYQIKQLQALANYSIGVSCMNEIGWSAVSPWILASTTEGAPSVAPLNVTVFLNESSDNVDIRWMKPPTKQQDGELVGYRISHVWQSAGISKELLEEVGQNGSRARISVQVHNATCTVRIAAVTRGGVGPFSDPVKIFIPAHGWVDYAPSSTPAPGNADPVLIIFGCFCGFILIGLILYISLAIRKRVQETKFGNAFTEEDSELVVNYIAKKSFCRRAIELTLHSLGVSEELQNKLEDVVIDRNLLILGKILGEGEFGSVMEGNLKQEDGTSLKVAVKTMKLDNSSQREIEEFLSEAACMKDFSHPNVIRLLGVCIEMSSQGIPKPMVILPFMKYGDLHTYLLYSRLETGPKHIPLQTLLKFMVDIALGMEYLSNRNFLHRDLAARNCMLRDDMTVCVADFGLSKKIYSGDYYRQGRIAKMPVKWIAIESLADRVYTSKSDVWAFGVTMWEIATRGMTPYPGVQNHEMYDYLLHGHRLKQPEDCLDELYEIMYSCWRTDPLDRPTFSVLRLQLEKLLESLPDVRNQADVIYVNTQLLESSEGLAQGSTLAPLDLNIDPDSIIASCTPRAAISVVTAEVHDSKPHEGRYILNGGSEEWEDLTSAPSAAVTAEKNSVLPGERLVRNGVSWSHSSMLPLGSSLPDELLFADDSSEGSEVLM

For the compound `CCOC(=O)c1cnc(S(C)(=O)=O)nc1N1CCC[C@@H](n2nc(-c3ccc(Oc4ccccc4)cc3)c3c(N)ncnc32)C1` [Compound 8c, Ethyl (R)-4-(3-(4-Amino-3-(4-phenoxyphenyl)-1H-pyrazolo[3,4-d]pyrimidin-1-yl)piperidin-1-yl)-2-(methylsulfonyl)pyrimidine-5-carboxylate], the difference in %Control from compound Ib at 1 µM in experiment [1] (@1000nM) came out at 60%. The remaining binding at 1 µM worked out at 93% in experiment [1] (@1000nM, read-out: %Control); 93% in experiment [1] (read-out: %Control @1000nM); 72% in experiment [2] (@1000nM, read-out: %Control); 72% in experiment [2] (read-out: %Control @1000nM); 71% in experiment [3] (@1000nM, read-out: %Control); 71% in experiment [3] (read-out: %Control @1000nM). In experiment [2] (@1000nM), the difference in %Control versus compound Ib at 1 µM was 54%.

Take `Cc1cnc(S(C)(=O)=O)nc1N1CCCC(n2nc(-c3ccc(Oc4ccccc4)cc3)c3c(N)ncnc32)C1` (centres unmarked) [Compound 8a, 1-(1-(5-Methyl-2-(methylsulfonyl)pyrimidin-4-yl)piperidin-3-yl)-3-(4-phenoxyphenyl)-1H-pyrazolo[3,4-d]pyrimidin-4-amine]: the difference in %Control from compound Ib at 1 µM in experiment [1] (@1000nM) came to 21%. Further, the remaining binding at 1 µM stood at 54% in experiment [1] (@1000nM, read-out: %Control); 54% in experiment [1] (read-out: %Control @1000nM); 24% in experiment [2] (@1000nM, read-out: %Control); 24% in experiment [2] (read-out: %Control @1000nM); 60% in experiment [3] (@1000nM, read-out: %Control); 60% in experiment [3] (read-out: %Control @1000nM). Moreover, the difference in %Control versus compound Ib at 1 µM in experiment [2] (@1000nM) amounted to 6%.

For `C=CC(=O)N1CCC[C@@H](n2nc(-c3ccc(Oc4ccccc4)cc3)c3c(N)ncnc32)C1` [Compound 1g, Ibrutinib, reference compound], the remaining binding at 1 µM in experiment [1] (@1000nM, read-out: %Control) was 33%; in experiment [1] (read-out: %Control @1000nM), 33%; in experiment [2] (@1000nM, read-out: %Control) it was 18%; in experiment [2] (read-out: %Control @1000nM), 18%; in experiment [3] (@1000nM, read-out: %Control), 38%; in experiment [3] (read-out: %Control @1000nM) it was 38%.

Take `COC(=O)c1cnc(S(C)(=O)=O)nc1N1CCCC(n2nc(-c3ccc(Oc4ccccc4)cc3)c3c(N)ncnc32)C1` (centres unmarked) [Compound 8b, Methyl 4-(3-(4-Amino-3-(4-phenoxyphenyl)-1H-pyrazolo[3,4-d]pyrimidin-1-yl)piperidin-1-yl)-2-(methylsulfonyl)pyrimidine-5-carboxylate]: the difference in %Control from compound Ib at 1 µM in experiment [1] (@1000nM) was determined as 47%. Further, the remaining binding at 1 µM came out at 80% in experiment [1] (@1000nM, read-out: %Control); 80% in experiment [1] (read-out: %Control @1000nM); 8.9% in experiment [2] (@1000nM, read-out: %Control); 8.9% in experiment [2] (read-out: %Control @1000nM); 67% in experiment [3] (@1000nM, read-out: %Control); 67% in experiment [3] (read-out: %Control @1000nM). Besides, the difference in %Control versus compound Ib at 1 µM in experiment [2] (@1000nM) is -9.1%.

In experiment [1] (@1000nM), `CNC(=O)c1cnc(S(C)(=O)=O)nc1N1CCCC(n2nc(-c3ccc(Oc4ccccc4)cc3)c3c(N)ncnc32)C1` (centres unmarked) [Compound 8d, 4-(3-(4-Amino-3-(4-phenoxyphenyl)-1H-pyrazolo[3,4-d]pyrimidin-1-yl)piperidin-1-yl)-N-methyl-2-(methylsulfonyl)pyrimidine-5-carboxamide] gave a difference in %Control from compound Ib at 1 µM of 32%. Further, the remaining binding at 1 µM in experiment [1] (@1000nM, read-out: %Control) stood at 65%; in experiment [1] (read-out: %Control @1000nM), 65%; in experiment [2] (@1000nM, read-out: %Control), 34%; in experiment [2] (read-out: %Control @1000nM), 34%; in experiment [3] (@1000nM, read-out: %Control) it was 49%; in experiment [3] (read-out: %Control @1000nM), 49%. Also, the difference in %Control versus compound Ib at 1 µM in experiment [2] (@1000nM) is 16%.
